Experiments:
[1] = target: T1, 20S Human Erythrocyte Proteasome (HEP) (Homo sapiens, UniProt P20618+P28074); assay: Chymotrypsin-like activity of 20S Human Erythrocyte Proteasome (HEP), IC50 determination; type: biochemical; settings: assay of Example C, inhibition of HEP
T1 construct: 20S Human Erythrocyte Proteasome (HEP), purchased from Immatics Biotechnologies Inc; purchased Immatics Biotechnologies Inc., Tübingen, Germany; host or cells: human erythrocytes (natural source)
Procedure, shortened: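 20S proteasome at 0.2 μg/mL (about 0.6 nM catalytic sites) in 20 mM Tris with 0.04% SDS, preincubated 15 min at 37° C with inhibitor before Suc-LLVY-AMC (100 μM final). AMC fluorescence read in the linear range; triplicates, IC50 from concentration series.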

[2] = target: T2, proteasome in Molt-4 cells (human leukemia) (Homo sapiens, UniProt P20618+P28074); type: cell-based; settings: assay of Example E, inhibition of MOLT4; read-out: MOLT4 (EC50)
T2 sequence (P28074 60-263): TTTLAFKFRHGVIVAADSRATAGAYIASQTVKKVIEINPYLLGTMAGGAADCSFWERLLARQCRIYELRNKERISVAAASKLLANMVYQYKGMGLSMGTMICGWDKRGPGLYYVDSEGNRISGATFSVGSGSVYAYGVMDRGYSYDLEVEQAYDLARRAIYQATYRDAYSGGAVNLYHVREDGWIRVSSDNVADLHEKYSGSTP
T2 sequence (P20618 29-241): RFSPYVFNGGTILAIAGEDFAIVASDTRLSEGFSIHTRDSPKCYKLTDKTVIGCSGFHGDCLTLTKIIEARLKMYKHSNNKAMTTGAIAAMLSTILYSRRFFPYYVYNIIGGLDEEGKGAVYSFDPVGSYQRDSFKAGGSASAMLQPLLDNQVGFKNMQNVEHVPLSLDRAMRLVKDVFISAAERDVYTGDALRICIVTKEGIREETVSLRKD
Procedure, shortened: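 Intact Molt-4 cells (6×10^6 cells/mL) in HEPES-buffered saline were preincubated with inhibitor 15 min at 37 °C, then given cell-permeable MeOSuc-FLF-AFC at 25 μM final.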

| Structure (SMILES) | IC50 [1] | EC50 [2] |
| --- | --- | --- |
| CC(C)C[C@H](NC(=O)[C@H](CCCNC(=N)N[N+](=O)[O-])NC(=O)CCCc1cccs1)B1O[C@@H]2C[C@@H]3C[C@@H](C3(C)C)[C@]2(C)O1 [D.3.126, 4-(Thiophen-2-yl)butanamide,N-[(1S)-1-[[[(1R)-1-[(3aS,4S,6S,7aR)-hexahydro-3a,5,5-trimethyl-4,6-methano-1,3,2-benzodioxaborol-2-yl]-3-methylbutyl]amino]carbonyl]-4-[[imino(nitroamino)methyl]amino]butyl]] | < 10 nM | < 200 nM |
| CC(C)C[C@H](NC(=O)[C@H](CCCNC(=N)N[N+](=O)[O-])NC(=O)Cc1cccc(Cl)c1)B1O[C@@H]2C[C@@H]3C[C@@H](C3(C)C)[C@]2(C)O1 [D.3.128, 2-(3-Chlorophenyl)acetamide,N-[(1S)-1-[[[(1R)-1-[(3aS,4S,6S,7aR)-hexahydro-3a,5,5-trimethyl-4,6-methano-1,3,2-benzodioxaborol-2-yl]-3-methylbutyl]amino]carbonyl]-4-[[imino(nitroamino)methyl]amino]butyl]] | < 10 nM | 200 to 2000 nM |
| CCCCCCCCCCC(=O)N[C@@H](CCCNC(=N)N[N+](=O)[O-])C(=O)N[C@@H](CC(C)C)B1O[C@@H]2C[C@@H]3C[C@@H](C3(C)C)[C@]2(C)O1 [D.3.129, Undecanamide,N-[(1S)-1-[[[(1R)-1-[(3aS,4S,6S,7aR)-hexahydro-3a,5,5-trimethyl-4,6-methano-1,3,2-benzodioxaborol-2-yl]-3-methylbutyl]amino]carbonyl]-4-[[imino(nitroamino)methyl]amino]butyl]] | < 10 nM | < 200 nM |
| CC(C)C[C@H](NC(=O)[C@H](CCCNC(=N)N[N+](=O)[O-])NC(=O)CCCCCc1ccccc1)B1O[C@@H]2C[C@@H]3C[C@@H](C3(C)C)[C@]2(C)O1 [D.3.131, 6-Phenylhexanamide,N-[(1S)-1-[[[(1R)-1-[(3aS,4S,6S,7aR)-hexahydro-3a,5,5-trimethyl-4,6-methano-1,3,2-benzodioxaborol-2-yl]-3-methylbutyl]amino]carbonyl]-4-[[imino(nitroamino)methyl]amino]butyl]] | < 10 nM | < 200 nM |
| CC(C)C[C@H](NC(=O)[C@H](CCCNC(=N)N[N+](=O)[O-])NC(=O)CCCCc1ccccc1)B1O[C@@H]2C[C@@H]3C[C@@H](C3(C)C)[C@]2(C)O1 [D.3.132, 5-Phenylpentanamide,N-[(1S)-1-[[[(1R)-1-[(3aS,4S,6S,7aR)-hexahydro-3a,5,5-trimethyl-4,6-methano-1,3,2-benzodioxaborol-2-yl]-3-methylbutyl]amino]carbonyl]-4-[[imino(nitroamino)methyl]amino]butyl]] | < 10 nM | < 200 nM |
| CC(C)C[C@H](NC(=O)[C@H](CCCNC(=N)N[N+](=O)[O-])NC(=O)CCCCCCCCCO)B1O[C@@H]2C[C@@H]3C[C@@H](C3(C)C)[C@]2(C)O1 [D.3.133, 10-Hydroxydecanamide,N-[(1S)-1-[[[(1R)-1-[(3aS,4S,6S,7aR)-hexahydro-3a,5,5-trimethyl-4,6-methano-1,3,2-benzodioxaborol-2-yl]-3-methylbutyl]amino]carbonyl]-4-[[imino(nitroamino)methyl]amino]butyl]] | < 10 nM | 200 to 2000 nM |
| CC(C)C[C@H](NC(=O)[C@H](CCCNC(=N)N[N+](=O)[O-])NC(=O)Cn1cnnn1)B1O[C@@H]2C[C@@H]3C[C@@H](C3(C)C)[C@]2(C)O1 [D.3.136] | < 10 nM | > 10000 nM |
| CC(C)C[C@H](NC(=O)[C@H](CCCNC(=N)N[N+](=O)[O-])NC(=O)CSc1ncccn1)B1O[C@@H]2C[C@@H]3C[C@@H](C3(C)C)[C@]2(C)O1 [D.3.137] | < 100 nM | 2000 to 10000 nM |
| CSCCC(=O)N[C@@H](CCCNC(=N)N[N+](=O)[O-])C(=O)N[C@@H](CC(C)C)B1O[C@@H]2C[C@@H]3C[C@@H](C3(C)C)[C@]2(C)O1 [D.3.138, 3-Methylsulfanylpropanamide,N-[(1S)-1-[[[(1R)-1-[(3aS,4S,6S,7aR)-hexahydro-3a,5,5-trimethyl-4,6-methano-1,3,2-benzodioxaborol-2-yl]-3-methylbutyl]amino]carbonyl]-4-[[imino(nitroamino)methyl]amino]butyl]] | < 100 nM | 200 to 2000 nM |

— patent publication US8546608B2, “Proteasome inhibitors and methods of using the same” (Cephalon, Inc., priority 2003, dated 2013)
